Source: patent US20160324154A1, “Herbicidal mixtures comprising imazethapyr, imazamox and fomesafen, sulfentrazone or bentazone” (BASF AGROCHEMICAL PRODUCTS B.V., priority 2014, published 2016)

Columns and labels:
Assay type in all cases: in vivo
[1] = test system: Phalaris canariensis; test: Post emergence treatment, herbicidal activity against PHACA; parameters: scale not given here
Protocol: (§1) Synergism can be described as an interaction where the combined effect of two or more compounds is greater than the sum of the individual effects of each of the compounds. […] However, the weed control afforded by the compounds, mixtures or compositions is not limited to these species.The analysis of synergism or antagonism between the mixtures or compositions was determined using Colby's equation. Analogously, the Colby's equation can be used to determine synergism of 3-way and higher mixtures: [table] Post Emergence Treatment by the Mixture of (Imazamox+Imazethapyr)+Bentazon Post Emergence Treatment by the Mixture of (Imazamox+Imazethapyr)+Fomesafen Post Emergence Treatment by the Mixture of (Imazamox+Imazethapyr)+Sulfentrazone

[2] = test system: Leptochloa fusca; test: Post emergence treatment, herbicidal activity against LEFFA
Protocol: as §1

[3] = test system: Geranium dissectum; test: Post emergence treatment, herbicidal activity against GERDI; parameters: scale not given here
Protocol: as §1

[4] = test system: Setaria faberi; test: Post emergence treatment, herbicidal activity against SETFA
Protocol: as §1, with “of” for “of (Imazamox+Imazethapyr)+Fomesafen Post Emergence Treatment by the Mixture of”

[5] = test system: Sesbania exaltata; test: Post emergence treatment, herbicidal activity against SEBEX; parameters: scale not given here
Protocol: as §1

[6] = test system: Polygonum persicaria; test: Post emergence treatment, herbicidal activity against POLPE
Protocol: as §1, with “of” for “of (Imazamox+Imazethapyr)+Bentazon Post Emergence Treatment by the Mixture of”

[7] = test system: Panicum miliaceum; test: Post emergence treatment, herbicidal activity against PANMI; details: Example 3, post emergence; g ai/ha: imazethapyr 15, imazamox 15, sulfentrazone 6, mixture (15 + 15) + 6
Protocol: as §1, with “of” for “of (Imazamox+Imazethapyr)+Bentazon Post Emergence Treatment by the Mixture of (Imazamox+Imazethapyr)+Fomesafen Post Emergence Treatment by the Mixture of”

[8] = test system: Brachiaria decumbens; test: Post emergence treatment, herbicidal activity against BRADC; details: Example 3, post emergence; g ai/ha: imazethapyr 15, imazamox 15, sulfentrazone 10, mixture (15 + 15) + 10
Protocol: as §1, with “of” for “of (Imazamox+Imazethapyr)+Bentazon Post Emergence Treatment by the Mixture of (Imazamox+Imazethapyr)+Fomesafen Post Emergence Treatment by the Mixture of”

[9] = test system: Ambrosia artemisiifolia; test: Post emergence treatment, herbicidal activity against AMBEL
Protocol: as §1, with “(Imazamox+Imazethapyr)+Fomesafen” for “(Imazamox+Imazethapyr)+Fomesafen Post Emergence Treatment by the Mixture of (Imazamox+Imazethapyr)+Sulfentrazone”

[10] = test system: Abutilon theophrasti; test: Post emergence treatment, herbicidal activity against ABUTH; details: Example 1, post emergence; g ai/ha: imazethapyr 15, imazamox 15, bentazon 25, mixture (15 + 15) + 25
Protocol: as §1, with “(Imazamox+Imazethapyr)+Bentazon” for “(Imazamox+Imazethapyr)+Bentazon Post Emergence Treatment by the Mixture of (Imazamox+Imazethapyr)+Fomesafen Post Emergence Treatment by the Mixture of (Imazamox+Imazethapyr)+Sulfentrazone”

[11] = test system: Echinochloa crus-galli; test: Post emergence treatment, herbicidal activity against ECHCG; details: Example 1, post emergence; g ai/ha: imazethapyr 15, imazamox 15, bentazon 50, mixture (15 + 15) + 50
Protocol: as §1, with “(Imazamox+Imazethapyr)+Bentazon” for “(Imazamox+Imazethapyr)+Bentazon Post Emergence Treatment by the Mixture of (Imazamox+Imazethapyr)+Fomesafen Post Emergence Treatment by the Mixture of (Imazamox+Imazethapyr)+Sulfentrazone”

[12] = test system: Digitaria sanguinalis; test: Post emergence treatment, herbicidal activity against DIGSA; details: Example 1, post emergence; g ai/ha: imazethapyr 15, imazamox 15, bentazon 50, mixture (15 + 15) + 50
Protocol: as §1, with “(Imazamox+Imazethapyr)+Bentazon” for “(Imazamox+Imazethapyr)+Bentazon Post Emergence Treatment by the Mixture of (Imazamox+Imazethapyr)+Fomesafen Post Emergence Treatment by the Mixture of (Imazamox+Imazethapyr)+Sulfentrazone”

[13] = test system: Conyza canadensis; test: Post emergence treatment, herbicidal activity against ERICA
Protocol: as §1, with “(Imazamox+Imazethapyr)+Fomesafen” for “(Imazamox+Imazethapyr)+Fomesafen Post Emergence Treatment by the Mixture of (Imazamox+Imazethapyr)+Sulfentrazone”

[14] = test system: Convolvulus arvensis; test: Post emergence treatment, herbicidal activity against CONAR; details: Example 2, post emergence; g ai/ha: imazethapyr 15, imazamox 15, fomesafen 6, mixture (15 + 15) + 6
Protocol: as §1, with “of” for “of (Imazamox+Imazethapyr)+Bentazon Post Emergence Treatment by the Mixture of”, “(Imazamox+Imazethapyr)+Fomesafen” for “(Imazamox+Imazethapyr)+Fomesafen Post Emergence Treatment by the Mixture of (Imazamox+Imazethapyr)+Sulfentrazone”

[15] = Example 3, post emergence, g ai/ha: imazethapyr 15, imazamox 15, sulfentrazone 6, mixture (15 + 15) + 6
[16] = Example 3, post emergence, g ai/ha: imazethapyr 15, imazamox 15, sulfentrazone 10, mixture (15 + 15) + 10
[17] = Example 1, post emergence, g ai/ha: imazethapyr 15, imazamox 15, bentazon 25, mixture (15 + 15) + 25
[18] = Example 1, post emergence, g ai/ha: imazethapyr 15, imazamox 15, bentazon 50, mixture (15 + 15) + 50
[19] = Example 2, post emergence, g ai/ha: imazethapyr 15, imazamox 15, fomesafen 6, mixture (15 + 15) + 6
[20] = Example 2, post emergence, g ai/ha: imazethapyr 15, imazamox 15, fomesafen 10, mixture (15 + 15) + 10

Cc1nn(-c2cc(NS(C)(=O)=O)c(Cl)cc2Cl)c(=O)n1C(F)F [Sulfentrazone, 2′,4′-dichloro-5′-(4-difluoromethyl-4,5-dihydro-3-methyl-5-oxo-1H-1,2,4-triazol-1-yl)methanesulfonanilide]
Herbicidal activity against PHACA Found [1, 15]: 0
Herbicidal activity against LEFFA Found [2, 15]: 0
Herbicidal activity against GERDI Found [3, 15]: 0
Herbicidal activity against SETFA Found [4, 15]: 0
Herbicidal activity against SEBEX Found [5, 16]: 80
Herbicidal activity against POLPE Found [6, 16]: 80
Herbicidal activity against PANMI Found [7]: 0
Herbicidal activity against BRADC Found [8]: 30

CC(C)N1C(=O)c2ccccc2NS1(=O)=O [Bentazon, 3-isopropyl-1H-2,1,3-benzothiadiazin-4(3H)-one 2,2-dioxide]
Herbicidal activity against PHACA Found [1, 17]: 0
Herbicidal activity against LEFFA Found [2, 17]: 0
Herbicidal activity against AMBEL Found [9, 17]: 0
Herbicidal activity against GERDI Found [3, 17]: 0
Herbicidal activity against ABUTH Found [10]: 0
Herbicidal activity against ECHCG Found [11]: 35
Herbicidal activity against SETFA Found [4, 18]: 10
Herbicidal activity against DIGSA Found [12]: 40
Herbicidal activity against SEBEX Found [5, 18]: 40
Herbicidal activity against ERICA Found [13, 18]: 40

CS(=O)(=O)NC(=O)c1cc(Oc2ccc(C(F)(F)F)cc2Cl)ccc1[N+](=O)[O-] [Fomesafen, 5-(2-chloro-α,α,α-trifluoro-p-tolyloxy)-N-mesyl-2-nitrobenzamide]
Herbicidal activity against PHACA Found [1, 19]: 0
Herbicidal activity against LEFFA Found [2, 19]: 0
Herbicidal activity against AMBEL Found [9, 20]: 65
Herbicidal activity against GERDI Found [3, 19]: 0
Herbicidal activity against GERDI Found [3, 20]: 70
Herbicidal activity against SEBEX Found [5, 20]: 80
Herbicidal activity against ERICA Found [13, 20]: 30
Herbicidal activity against CONAR Found [14]: 0
Herbicidal activity against POLPE Found [6, 19]: 20

COCc1cnc(C2=NC(C)(C(C)C)C(=O)N2)c(C(=O)O)c1 (racemic) [Imazamox, 2-[(RS)-4-isopropyl-4-methyl-5-oxo-2-imidazolin-2-yl]-5-methoxymethylnicotinic acid]
Herbicidal activity against PHACA Found [1, 17]: 65
Herbicidal activity against PHACA Found [1, 19]: 65
Herbicidal activity against PHACA Found [1, 15]: 65
Herbicidal activity against LEFFA Found [2, 17]: 85
Herbicidal activity against LEFFA Found [2, 19]: 85
Herbicidal activity against LEFFA Found [2, 15]: 85
Herbicidal activity against AMBEL Found [9, 17]: 98
Herbicidal activity against AMBEL Found [9, 20]: 70
Herbicidal activity against GERDI Found [3, 17]: 80
Herbicidal activity against GERDI Found [3, 19]: 80
Herbicidal activity against GERDI Found [3, 20]: 95
Herbicidal activity against GERDI Found [3, 15]: 80
Herbicidal activity against ABUTH Found [10]: 95
Herbicidal activity against ECHCG Found [11]: 98
Herbicidal activity against SETFA Found [4, 18]: 98
Herbicidal activity against SETFA Found [4, 15]: 98
Herbicidal activity against DIGSA Found [12]: 98
Herbicidal activity against SEBEX Found [5, 18]: 45
Herbicidal activity against SEBEX Found [5, 20]: 45
Herbicidal activity against SEBEX Found [5, 16]: 45
Herbicidal activity against ERICA Found [13, 18]: 60
Herbicidal activity against ERICA Found [13, 20]: 60
Herbicidal activity against CONAR Found [14]: 75
Herbicidal activity against POLPE Found [6, 19]: 95
Herbicidal activity against POLPE Found [6, 16]: 95
Herbicidal activity against PANMI Found [7]: 98
Herbicidal activity against BRADC Found [8]: 35

CCc1cnc(C2=NC(C)(C(C)C)C(=O)N2)c(C(=O)O)c1 (racemic) [Imazethapyr, 5-ethyl-2-[(RS)-4-isopropyl-4-methyl-5-oxo-2-imidazolin-2-yl]nicotinic acid]
Herbicidal activity against PHACA Found [1, 17]: 30
Herbicidal activity against PHACA Found [1, 19]: 30
Herbicidal activity against PHACA Found [1, 15]: 30
Herbicidal activity against LEFFA Found [2, 17]: 45
Herbicidal activity against LEFFA Found [2, 19]: 45
Herbicidal activity against LEFFA Found [2, 15]: 45
Herbicidal activity against AMBEL Found [9, 17]: 98
Herbicidal activity against AMBEL Found [9, 20]: 65
Herbicidal activity against GERDI Found [3, 17]: 65
Herbicidal activity against GERDI Found [3, 19]: 65
Herbicidal activity against GERDI Found [3, 20]: 65
Herbicidal activity against GERDI Found [3, 15]: 65
Herbicidal activity against ABUTH Found [10]: 50
Herbicidal activity against ECHCG Found [11]: 80
Herbicidal activity against SETFA Found [4, 18]: 90
Herbicidal activity against SETFA Found [4, 15]: 95
Herbicidal activity against DIGSA Found [12]: 80
Herbicidal activity against SEBEX Found [5, 18]: 0
Herbicidal activity against SEBEX Found [5, 20]: 0
Herbicidal activity against SEBEX Found [5, 16]: 0
Herbicidal activity against ERICA Found [13, 18]: 55
Herbicidal activity against ERICA Found [13, 20]: 55
Herbicidal activity against CONAR Found [14]: 65
Herbicidal activity against POLPE Found [6, 19]: 0
Herbicidal activity against POLPE Found [6, 16]: 75
Herbicidal activity against PANMI Found [7]: 70
Herbicidal activity against BRADC Found [8]: 10
